How the values were obtained:
[1] = In Vitro Cytotoxicity Assay HCT116 (CellTiter-Glo); format: cell-based; conditions: human, HCT116 colon carcinoma cells, cultured three days
Procedure: (§1) The cell lines HL60 (human promyelocytic leukemia) and HCT116 (human colon carcinoma) were obtained from the American Type Culture Collection, Manassas, Va., U.S.A. All products were used in accordance with manufacturer's directions. The cytotoxicity assays were conducted in triplicate, in each case with solvent control.
(§2) Log-phase cells were trypsinized, collected by centrifugation, and resuspended in a small volume of fresh medium, and the density of viable cells was determined following Trypan Blue staining Cells were diluted in fresh media, the test compounds (concentrations between 0.1 μM and 200 μM, dissolved in DMSO, 50 μL) added immediately after dilution to achieve a final DMSO concentration of 0.5%, then the suspensions added at 150 μL/well to 96-well plates, and incubated overnight to allow attachment in the case of adherent cells. The cells were cultured for three days (about three doubling times). The cells were then collected by centrifugation, and 100 μL of the culture supernatant was replaced by the CellTiter-Glo reagent. After incubation for 15 minutes at room temperature, the plate was read with a luminometer. […] The table gives cytotoxicity IC50s in μm.

VEGFR2 kinase = biological target: T1, VEGFR2 kinase (Homo sapiens, UniProt P35968); assay: In Vitro VEGFR2 Kinase Assay; format: biochemical; conditions: FP; CSKtide substrate, 60 minutes at room temperature
T1 construct: purchased InVitrogen
Procedure: In Vitro VEGFR2 Kinase Assay
50 ng/well VEGFR2 kinase (from InVitrogen) was mixed in buffer (14.5 μL/well). To this were added, 0.5 μL of the compound of this invention at a concentration of 2.5% in DMSO. After incubatiuon for 5 minutes at room temperature, 5 μL of substrate (CSKtide, 400 nM) and 8 μL ATP were added. The mixture was incubated for 60 minutes at room temperature and 60 uL of binding reagent (beads) was added. After incubation overnight at room temperature, the plate was read with a LJL plate reader.

[2] = In Vitro Cytotoxicity Assay HL60 (CellTiter-Glo); format: cell-based; conditions: human, HL60 promyelocytic leukemia cells; HL 60 cells, cultured three days
Procedure: as §1, §2

T1 sequence (P35968 20-1356): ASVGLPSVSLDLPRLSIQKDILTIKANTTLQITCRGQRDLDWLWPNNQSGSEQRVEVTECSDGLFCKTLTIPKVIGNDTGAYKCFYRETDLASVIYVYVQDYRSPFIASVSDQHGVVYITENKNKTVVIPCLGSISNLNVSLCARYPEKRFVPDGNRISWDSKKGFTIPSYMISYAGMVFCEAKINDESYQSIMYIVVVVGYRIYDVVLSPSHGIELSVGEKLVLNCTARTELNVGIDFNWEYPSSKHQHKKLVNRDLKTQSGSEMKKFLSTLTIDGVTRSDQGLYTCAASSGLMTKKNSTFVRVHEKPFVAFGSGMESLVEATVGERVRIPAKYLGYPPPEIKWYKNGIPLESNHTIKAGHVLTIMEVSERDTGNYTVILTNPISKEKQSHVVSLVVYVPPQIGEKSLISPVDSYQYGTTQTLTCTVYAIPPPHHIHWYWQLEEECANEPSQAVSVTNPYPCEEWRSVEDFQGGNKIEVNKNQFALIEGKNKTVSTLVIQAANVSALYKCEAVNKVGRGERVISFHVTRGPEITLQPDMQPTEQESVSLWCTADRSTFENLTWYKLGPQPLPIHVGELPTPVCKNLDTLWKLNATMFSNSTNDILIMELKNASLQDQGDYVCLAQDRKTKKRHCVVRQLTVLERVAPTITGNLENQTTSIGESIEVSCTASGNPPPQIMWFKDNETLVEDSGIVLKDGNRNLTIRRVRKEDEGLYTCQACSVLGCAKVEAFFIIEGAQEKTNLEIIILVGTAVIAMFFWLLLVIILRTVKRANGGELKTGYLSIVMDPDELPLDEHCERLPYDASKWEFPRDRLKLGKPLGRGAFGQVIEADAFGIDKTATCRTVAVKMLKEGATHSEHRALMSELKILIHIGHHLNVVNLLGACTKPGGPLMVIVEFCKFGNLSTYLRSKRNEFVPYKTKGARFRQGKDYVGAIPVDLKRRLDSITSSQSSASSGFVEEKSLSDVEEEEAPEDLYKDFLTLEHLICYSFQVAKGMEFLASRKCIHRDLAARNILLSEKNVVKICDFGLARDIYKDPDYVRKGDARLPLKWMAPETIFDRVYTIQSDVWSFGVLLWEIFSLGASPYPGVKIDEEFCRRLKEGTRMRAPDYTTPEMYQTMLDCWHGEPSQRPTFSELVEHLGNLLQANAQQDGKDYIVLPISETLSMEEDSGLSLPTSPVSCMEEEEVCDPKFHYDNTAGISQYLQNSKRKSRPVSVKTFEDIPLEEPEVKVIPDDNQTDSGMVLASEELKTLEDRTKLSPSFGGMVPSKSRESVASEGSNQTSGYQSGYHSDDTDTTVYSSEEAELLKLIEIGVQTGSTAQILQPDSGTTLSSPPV

SMILES | IC50 at 3 days [1] [µM] | IC50 (VEGFR2 kinase) [nM] | IC50 at 3 days [2] [µM]
Cc1ccc(NC(=O)Nc2cccc(-c3csc(-c4cncnc4N)n3)c2)cc1Cl [Compound 11] | 3 | 10 | –
CC(C)(O)c1cccc(NC(=O)Nc2cccc(-c3csc(-c4cncnc4N)n3)c2)c1 [Compound 43] | 5 | 20 | –
Nc1ncncc1-c1nc(-c2cccc(NC(=O)C3CCCC3)c2)cs1 [Compound 64] | > 50 | 300 | –
Nc1ncncc1-c1nc(-c2cccc(NC(=O)Nc3cccc(CO)c3)c2)cs1 [Compound 44] | 30 | 30 | –
N#Cc1ccc(NC(=O)Nc2cccc(-c3csc(-c4cncnc4N)n3)c2)cc1 [Compound 29] | > 50 | 60 | –
Nc1ncncc1-c1nc(-c2cccc(NC(=O)N3CCC(O)CC3)c2)cs1 [Compound 69] | 4 | 400 | –
Nc1ncncc1-c1nc(-c2cccc(NC(=O)Cc3cccc(C(F)(F)F)c3)c2)cs1 [Compound 40] | 7 | 100 | –
COc1ccccc1C(=O)Nc1cccc(-c2csc(-c3cncnc3N)n2)c1 [Compound 25] | 10 | 300 | –
Nc1ncncc1-c1nc(-c2cccc(NC(=O)Nc3ccc(F)c(C(F)(F)F)c3)c2)cs1 [Compound 10] | 2 | 20 | 0.5
Nc1ncncc1-c1nc(-c2cccc(NC(=O)N3CCCCC3)c2)cs1 [Compound 68] | 20 | 200 | –
Cc1ccccc1NC(=O)Nc1cccc(-c2csc(-c3cncnc3N)n2)c1 [Compound 19] | > 50 | 70 | 0.9
CN(C)Cc1cccc(C(=O)Nc2cccc(-c3csc(-c4cncnc4N)n3)c2)c1 [Compound 55] | 2 | 400 | 0.4
CCOC(=O)CNC(=O)Nc1cccc(-c2csc(-c3cncnc3N)n2)c1 [Compound 59] | 30 | 300 | –
Nc1ncncc1-c1nc(-c2cccc(NC(=O)Nc3ccccc3[N+](=O)[O-])c2)cs1 [Compound 33] | > 50 | 50 | –
Nc1ncncc1-c1nc(-c2cccc(NC(=O)NC3CCCC3)c2)cs1 [Compound 63] | 7 | 70 | –
Nc1ncncc1-c1nc(-c2cccc(NC(=O)Nc3cccc(Cl)c3)c2)cs1 [Compound 31] | 1 | 60 | –
Nc1ncncc1-c1nc(-c2cccc(NC(=O)CN3CCCCC3)c2)cs1 [Compound 67] | 10 | 300 | –
Nc1ncncc1-c1nc(-c2cccc(NC(=O)C3CCCCC3)c2)cs1 [Compound 62] | > 50 | 20 | –
Cc1cccc(C(=O)Nc2cccc(-c3csc(-c4cncnc4N)n3)c2)c1 [Compound 41] | 20 | 10 | –
Nc1ncncc1-c1nc(-c2cccc(NC(=O)Nc3ccc(Cl)cc3)c2)cs1 [Compound 16] | 10 | 4 | 1
COc1ccc(NC(=O)Nc2cccc(-c3csc(-c4cncnc4N)n3)c2)cc1 [Compound 14] | 20 | 30 | 0.3
Nc1ncncc1-c1nc(-c2cccc(NC(=O)Nc3ccccc3Cl)c2)cs1 [Compound 18] | 30 | 30 | 0.5
Nc1ncncc1-c1nc(-c2cccc(NC(=O)c3ccc(Cl)cc3)c2)cs1 [Compound 8] | 20 | 70 | 0.3
Nc1ncncc1-c1nc(-c2cccc(NC(=O)c3ccc(-c4ccccc4)cc3)c2)cs1 [Compound 15] | 3 | 400 | 1
COc1ccccc1NC(=O)Nc1cccc(-c2csc(-c3cncnc3N)n2)c1 [Compound 26] | 7 | 40 | 0.4
CCOC(=O)c1cccc(NC(=O)Nc2cccc(-c3csc(-c4cncnc4N)n3)c2)c1 [Compound 42] | 4 | 100 | –
Nc1ncncc1-c1nc(-c2cccc(NC(=O)c3ccc([N+](=O)[O-])cc3)c2)cs1 [Compound 13] | > 50 | 200 | > 50

SMILES | IC50 at 3 days [1] [µM] | IC50 (VEGFR2 kinase) [nM] | IC50 at 3 days [2] [µM]
Nc1ncncc1-c1nc(-c2cccc(NC(=O)c3cccc(CN4CCOCC4)c3)c2)cs1 [Compound 52] | 4 | 500 | 1
Nc1ncncc1-c1nc(-c2cccc(NC(=O)Nc3cccc(C(F)(F)F)c3)c2)cs1 [Compound 39] | 2 | 20 | 1
Nc1ncncc1-c1nc(-c2cccc(NC(=O)c3ccc(F)cc3)c2)cs1 [Compound 5] | 30 | 30 | –
Nc1ncncc1-c1nc(-c2cccc(NC(=O)c3ccc(F)c(F)c3)c2)cs1 [Compound 9] | 50 | 300 | 20
Nc1ncncc1-c1nc(-c2cccc(NC(=O)c3cccc(CNCCO)c3)c2)cs1 [Compound 56] | 3 | 100 | 2
Cc1ccc(NC(=O)Nc2cccc(-c3csc(-c4cncnc4N)n3)c2)cc1C [Compound 27] | 2 | 40 | 4
CCc1cccc(C)c1NC(=O)Nc1cccc(-c2csc(-c3cncnc3N)n2)c1 [Compound 38] | > 50 | 200 | –
Nc1ncncc1-c1nc(-c2cccc(NC(=O)Nc3ccc4c(c3)OCO4)c2)cs1 [Compound 72] | 2 | 60 | 0.3
CCc1ccc(NC(=O)Nc2cccc(-c3csc(-c4cncnc4N)n3)c2)cc1 [Compound 28] | 8 | 70 | 1
CCCCOC(=O)c1ccccc1NC(=O)Nc1cccc(-c2csc(-c3cncnc3N)n2)c1 [Compound 36] | 10 | 300 | –
Cc1cccc(NC(=O)c2cccc(-c3csc(-c4cncnc4N)n3)c2)c1 [Compound 49] | 10 | 400 | –
CCNC(=O)Nc1cccc(-c2csc(-c3cncnc3N)n2)c1 [Compound 60] | > 50 | 80 | –
Nc1ncncc1-c1nc(-c2ccc(NC(=O)Nc3cccc(C(F)(F)F)c3)cc2)cs1 [Compound 1] | 4 | – | 0.9
Nc1ncncc1-c1nc(-c2cccc(NC(=O)c3cccnc3)c2)cs1 [Compound 23] | 10 | 500 | –
Nc1ncncc1-c1nc(-c2cccc(NC(=O)c3cccc(Cl)c3)c2)cs1 [Compound 6, N-(3-(2-(4-aminopyrimidin-5-yl)thiazol-4-yl)phenyl)-3-chlorobenzamide] | > 50 | 20 | 3
Nc1ncncc1-c1nc(-c2cccc(NC(=O)NCc3ccccc3)c2)cs1 [Compound 58] | 4 | 60 | 0.4
Nc1ncncc1-c1nc(-c2cccc(NC(=O)Cc3ccccc3)c2)cs1 [Compound 45] | 30 | 40 | –
Nc1ncncc1-c1nc(-c2cccc(NC(=O)Nc3ccc(Cl)c(C(F)(F)F)c3)c2)cs1 [Compound 22] | 1 | 20 | 1
CC(=O)Nc1cccc(-c2csc(-c3cncnc3N)n2)c1 [Compound 61] | 40 | 300 | –
Nc1ncncc1-c1nc(-c2cccc(NC(=O)c3ccccn3)c2)cs1 [Compound 21] | > 50 | 200 | 4
Nc1ncncc1-c1nc(-c2cccc(NC(=O)Nc3ccccc3C(F)(F)F)c2)cs1 [Compound 20] | 50 | 50 | 0.7
N#Cc1cccc(NC(=O)Nc2cccc(-c3csc(-c4cncnc4N)n3)c2)c1 [Compound 30] | > 50 | 400 | –
Nc1ncncc1-c1nc(-c2cccc(NC(=O)Nc3ccccc3)c2)cs1 [Compound 4] | 6 | 10 | 0.2
Nc1ncncc1-c1nc(-c2cccc(NC(=O)c3ccncc3)c2)cs1 [Compound 24] | 30 | – | –
Nc1ncncc1-c1nc(-c2cccc(NC(=O)NC3CCCCC3)c2)cs1 [Compound 65] | 8 | 40 | 1
Nc1ncncc1-c1nc(-c2cccc(NC(=O)Nc3cccc(F)c3)c2)cs1 [Compound 12] | 40 | 100 | 0.1
Cc1nc(-c2cccc(NC(=O)Nc3cccc(-c4csc(-c5cncnc5N)n4)c3)c2)no1 [Compound 47] | > 50 | 90 | –

Reference: US20130184280A1, “SUBSTITUTED THIAZOLES AS VEGFR2 KINASE INHIBITORS” (TELIK, INC., priority 2011, published 2013)
